2 molecules from patent US4880777A, “Synthetic peptides having growth hormone releasing activity” (Eastman Kodak Company, priority 1987, dated 1989) can be followed below.

SMILES strings stand for the structures. Several values for one entry are separate records, joined by “and”; a condition that tells them apart may be missing. Equal entries are not always repeated. Where a SMILES comes first, the peptide text is derived from it. Bridges are numbered along the chain shown (N, C = ends). [ ]: non-standard residue; d: D form. Nle = CCCC[C@H](N)C(=O)O

For test [1], the system named is growth hormone (GH). In words: In vivo synergistic effects on GH release in rats of combinations with Compound B (Group 3) and Compound C (Group 2). The note with it: for synergism with Group 3 Compound B (in words): combination with Compound B (Tyr-DArg-Phe-Gly-NH2). The procedure: (§1) Immature female Sprague-Dawley rats were obtained from the Charles River Laboratories (Wilmington, Mass.). After arrival they were housed at 25° C. with 14:10 hour light:dark cycle. Water and Purina rat choow were availablle ad libitum. Pups were kept with their mothers until 21 days of age.
(§2) Normal saline with 0.1% gelatin was the vehicle for s.c. and i.v. injections of Compounds 1 and 2 . The unanesthetized rats, weighing 55-65 grams, were injected i.v. with 0.2 ml solution via the tail vein. All animals were sacrificed by quillotine 10 minutes after the final test injection unless specified otherwise. Trunk blood for growth hormone (GH) determinations was collected following decapitation. The blood was allowed to clot, centrifuged and the serum separated from the clot. Serum was kept frozen until the day of sampling for radioimmunoassay (RIA) of growth hormone levels according to the following procedure, as developed by the National Institute of Arthritis, Diabetes and Digestive and Kidney Diseases (NIADDK).
(§3) The mixed reagents are then typically incubated at room temperature (about 25° C.) for about 24 hours prior to addition of a second antibody (e.g., goat or rabbit anti-monkey gamma globulin serum) which binds to and cause precipitation of the complexed growth hormone antiserum. Precipitated contents of the RIA tubes are then analyzed for the number of counts in a specified period of time in a gamma scintillation counter. A standard curve is prepared by plotting number of radioactive counts as a function of growth hormone (GH) level. GH levels of unknowns are then determined by reference to the standard curve.
(§4) Serum GH was measured by RIA with reagents provided by the National Hormone and Pituitary Program. Serum levels are recorded in ng/ml in terms of the rat GH standard with 0.61 IU/mg. Data is recorded as the mean ± standard error of the mean (SEM). Statistical analysis was performed with student's t-test.
Compound 1 and Compound 2 of Examples 1 and 2, respectively, were each combined with the Group 2 and/or Group 3 polypeptides identified in Table 4 below and in the proprotions shown. The combinations were then tested for GH release in rats by the same procedure set forth in Example 3.

The subject of test [2] is growth hormone (GH). In words: In vivo GH release in rats (serum GH by RIA, 10 minutes after i.v. injection). Set-up: species or system Sprague-Dawley rats. Particulars: for GH Release: immature female rats, serum GH 10 minutes after injection, mean ± SEM; for potency compared with Compound A (in words) / release of growth hormone when administered to rats via i.v. injection (in words): rats, i.v. injection. The method, then: as §1, §2
Reagents are generally added to the RIA analysis tubes at a single sitting, at refrigerator temperature (about 4° C.) in the following sequence:
(b) "cold" (i.e., non-radioactive) standard or unknown serum sample to be analyzed,
(c) radio-iodinated growth hormone antigen, and
(d) growth hormone antiserum.
Reagent addition is generally carried out so that there is achieved a final RIA tube dilution in the range of about 1:10,000 up to 1:500,000 (antiserum to total liquid volume; vol:vol).
as §3, §4

[3] abbreviates: dose 10 of Column A compound combined with 30 μg Compound B.
Where [4] appears, read: dose 30 of Column A compound combined with 30 μg Compound B.

`CCCC[C@H](NC(=O)[C@@H](NC(=O)[C@H](CC(=O)O)NC(=O)[C@H](CCC(N)=O)NC(=O)[C@H](CC(C)C)NC(=O)[C@H](CC(C)C)NC(=O)[C@H](CCCCN)NC(=O)[C@H](CCCNC(=N)N)NC(=O)[C@H](C)NC(=O)[C@H](CO)NC(=O)[C@H](CC(C)C)NC(=O)[C@H](CCC(N)=O)NC(=O)[C@H](CS)NC(=O)[C@H](CC(C)C)NC(=O)[C@@H](NC(=O)[C@H](CCCCN)NC(=O)[C@H](CCCNC(=N)N)NC(=O)[C@H](Cc1ccc(O)cc1)NC(=O)[C@H](CS)NC(=O)[C@H](CC(N)=O)NC(=O)[C@@H](NC(=O)[C@H](Cc1ccccc1)NC(=O)[C@@H](NC(=O)[C@H](C)NC(=O)[C@H](CC(=O)O)NC(=O)[C@H](C)NC(=O)[C@@H](N)Cc1ccc(O)cc1)[C@@H](C)CC)[C@@H](C)O)C(C)C)[C@@H](C)CC)C(=O)N[C@@H](CO)C(=O)N[C@@H](CCCNC(=N)N)C(N)=O` [Compound 1] (H-YADAIFTNCYRKVLCQLSARKLLQDI[Nle]SR-NH2): the “synergism with Group 3 Compound B (in words)” value in test [1] was “act synergistically”. For the same molecule, the “GH Release by Compound in Column A” value is 145 ± 41 ng/mL and 77 ± 10 ng/mL in test [1] (dose 10, compound alone); 151 ± 33 ng/mL in test [1] (dose 30, compound alone); 374 ± 94 ng/mL in test [1] (dose 100, compound alone). In addition, the “GH Release of Compound in Column A & 30 μg Compound B” value was 3314 ± 275 ng/mL and 2078 ± 395 ng/mL in test [1] (setting [3]); 2875 ± 472 ng/mL in test [1] (setting [4]); 2328 ± 297 ng/mL in test [1] (dose 100 of Column A compound combined with 30 μg Compound B). Besides, the “GH Release of Compound in Column A & 30 μg Compound B & 10 μg Compound C” value in test [1] (dose 10 of Column A compound combined with 30 μg Compound B and 10 μg Compound C) turned out to be 4947 ± 366 ng/mL. Also, the “GH Release” value in test [2] (10 μg i.v.) amounted to 145 ± 41 ng/mL; in test [2] (30 μg i.v.), 151 ± 33 ng/mL; in test [2] (100 μg i.v.) it was 374 ± 94 ng/mL. In addition, the “potency compared with Compound A (in words)” value in test [2] is “potencies similar to Compound A”. In test [2], the “release of growth hormone when administered to rats via i.v. injection (in words)” value is “highly active”.

Regarding `CCCC[C@H](NC(=O)[C@@H](NC(=O)[C@H](CC(=O)O)NC(=O)[C@H](CCC(N)=O)NC(=O)[C@H](CC(C)C)NC(=O)[C@H](CC(C)C)NC(=O)[C@H](CCCCN)NC(=O)[C@H](CCCNC(=N)N)NC(=O)[C@H](C)NC(=O)[C@H](CO)NC(=O)[C@H](CC(C)C)NC(=O)[C@H](CCC(N)=O)NC(=O)[C@@H]1CSSC[C@H](NC(=O)[C@H](CC(N)=O)NC(=O)[C@@H](NC(=O)[C@H](Cc2ccccc2)NC(=O)[C@@H](NC(=O)[C@H](C)NC(=O)[C@H](CC(=O)O)NC(=O)[C@H](C)NC(=O)[C@@H](N)Cc2ccc(O)cc2)[C@@H](C)CC)[C@@H](C)O)C(=O)N[C@@H](Cc2ccc(O)cc2)C(=O)N[C@@H](CCCNC(=N)N)C(=O)N[C@@H](CCCCN)C(=O)N[C@@H](C(C)C)C(=O)N[C@@H](CC(C)C)C(=O)N1)[C@@H](C)CC)C(=O)N[C@@H](CO)C(=O)N[C@@H](CCCNC(=N)N)C(N)=O` [Compound 2] (H-YADAIFTNCYRKVLCQLSARKLLQDI[Nle]SR-NH2; disulfide 9-15), the “synergism with Group 3 Compound B (in words)” value in test [1] is listed as “act synergistically”. For the same molecule, the “GH Release by Compound in Column A” value is 62 ± 8 ng/mL in test [1] (dose 3, compound alone); 99 ± 11 ng/mL and 105 ± 29 ng/mL in test [1] (dose 10, compound alone); 132 ± 24 ng/mL in test [1] (dose 30, compound alone). Also, the “GH Release of Compound in Column A & 30 μg Compound B” value is 1689 ± 264 ng/mL in test [1] (dose 3 of Column A compound combined with 30 μg Compound B); 3733 ± 515 ng/mL and 2241 ± 323 ng/mL in test [1] (setting [3]); 2652 ± 560 ng/mL in test [1] (setting [4]). For the same molecule, the figures for the “GH Release” value in test [2] (3 μg i.v.), in test [2] (10 μg i.v.) and in test [2] (30 μg i.v.) were 62 ± 8 ng/mL, 99 ± 11 ng/mL and 132 ± 24 ng/mL, respectively. Further, in test [2], the “potency compared with Compound A (in words)” value is given as “potencies similar to Compound A”. Moreover, the “release of growth hormone when administered to rats via i.v. injection (in words)” value in test [2] was “highly active”.
